# From ChEMBL document CHEMBL4392842, “Structural hybridization of pyrrolidine-based T-type calcium channel inhibitors and exploration of their analgesic effects in a neuropathic pain model” (Bioorg Med Chem Lett, 2019)
# The source made the active and inactive calls.
# Key:
# [1] = target: Voltage-gated inwardly rectifying potassium channel KCNH2 (Homo sapiens, UniProt Q12809); assay: Inhibition of human ERG by whole-cell patch clamp method
# [2] = Stability in human liver microsomes assessed as parent compound remaining measured after 30 mins; assay type: ADME, Microsome; settings: read-out: Stability
# [3] = target: T1, Voltage-dependent T-type calcium channel subunit alpha-1G (Homo sapiens, UniProt O43497); assay: Inhibition of recombinant human Cav3.1 expressed in HEK293 cells assessed as reduction in KCl-induced increase in intracellular calcium level at 10 uM by fura-2 AM indicator based FDSS assay relative to control; assay type: cell-based
# [4] = target: T2, Voltage-dependent T-type calcium channel subunit alpha-1H (Homo sapiens, UniProt O95180); assay: Inhibition of Cav3.2 (unknown origin) assessed as reduction in KCl-induced increase in intracellular calcium level at 10 uM by fura-2 AM indicator based FDSS assay relative to control; assay type: cell-based
# T2 sequence (O95180 whole entry): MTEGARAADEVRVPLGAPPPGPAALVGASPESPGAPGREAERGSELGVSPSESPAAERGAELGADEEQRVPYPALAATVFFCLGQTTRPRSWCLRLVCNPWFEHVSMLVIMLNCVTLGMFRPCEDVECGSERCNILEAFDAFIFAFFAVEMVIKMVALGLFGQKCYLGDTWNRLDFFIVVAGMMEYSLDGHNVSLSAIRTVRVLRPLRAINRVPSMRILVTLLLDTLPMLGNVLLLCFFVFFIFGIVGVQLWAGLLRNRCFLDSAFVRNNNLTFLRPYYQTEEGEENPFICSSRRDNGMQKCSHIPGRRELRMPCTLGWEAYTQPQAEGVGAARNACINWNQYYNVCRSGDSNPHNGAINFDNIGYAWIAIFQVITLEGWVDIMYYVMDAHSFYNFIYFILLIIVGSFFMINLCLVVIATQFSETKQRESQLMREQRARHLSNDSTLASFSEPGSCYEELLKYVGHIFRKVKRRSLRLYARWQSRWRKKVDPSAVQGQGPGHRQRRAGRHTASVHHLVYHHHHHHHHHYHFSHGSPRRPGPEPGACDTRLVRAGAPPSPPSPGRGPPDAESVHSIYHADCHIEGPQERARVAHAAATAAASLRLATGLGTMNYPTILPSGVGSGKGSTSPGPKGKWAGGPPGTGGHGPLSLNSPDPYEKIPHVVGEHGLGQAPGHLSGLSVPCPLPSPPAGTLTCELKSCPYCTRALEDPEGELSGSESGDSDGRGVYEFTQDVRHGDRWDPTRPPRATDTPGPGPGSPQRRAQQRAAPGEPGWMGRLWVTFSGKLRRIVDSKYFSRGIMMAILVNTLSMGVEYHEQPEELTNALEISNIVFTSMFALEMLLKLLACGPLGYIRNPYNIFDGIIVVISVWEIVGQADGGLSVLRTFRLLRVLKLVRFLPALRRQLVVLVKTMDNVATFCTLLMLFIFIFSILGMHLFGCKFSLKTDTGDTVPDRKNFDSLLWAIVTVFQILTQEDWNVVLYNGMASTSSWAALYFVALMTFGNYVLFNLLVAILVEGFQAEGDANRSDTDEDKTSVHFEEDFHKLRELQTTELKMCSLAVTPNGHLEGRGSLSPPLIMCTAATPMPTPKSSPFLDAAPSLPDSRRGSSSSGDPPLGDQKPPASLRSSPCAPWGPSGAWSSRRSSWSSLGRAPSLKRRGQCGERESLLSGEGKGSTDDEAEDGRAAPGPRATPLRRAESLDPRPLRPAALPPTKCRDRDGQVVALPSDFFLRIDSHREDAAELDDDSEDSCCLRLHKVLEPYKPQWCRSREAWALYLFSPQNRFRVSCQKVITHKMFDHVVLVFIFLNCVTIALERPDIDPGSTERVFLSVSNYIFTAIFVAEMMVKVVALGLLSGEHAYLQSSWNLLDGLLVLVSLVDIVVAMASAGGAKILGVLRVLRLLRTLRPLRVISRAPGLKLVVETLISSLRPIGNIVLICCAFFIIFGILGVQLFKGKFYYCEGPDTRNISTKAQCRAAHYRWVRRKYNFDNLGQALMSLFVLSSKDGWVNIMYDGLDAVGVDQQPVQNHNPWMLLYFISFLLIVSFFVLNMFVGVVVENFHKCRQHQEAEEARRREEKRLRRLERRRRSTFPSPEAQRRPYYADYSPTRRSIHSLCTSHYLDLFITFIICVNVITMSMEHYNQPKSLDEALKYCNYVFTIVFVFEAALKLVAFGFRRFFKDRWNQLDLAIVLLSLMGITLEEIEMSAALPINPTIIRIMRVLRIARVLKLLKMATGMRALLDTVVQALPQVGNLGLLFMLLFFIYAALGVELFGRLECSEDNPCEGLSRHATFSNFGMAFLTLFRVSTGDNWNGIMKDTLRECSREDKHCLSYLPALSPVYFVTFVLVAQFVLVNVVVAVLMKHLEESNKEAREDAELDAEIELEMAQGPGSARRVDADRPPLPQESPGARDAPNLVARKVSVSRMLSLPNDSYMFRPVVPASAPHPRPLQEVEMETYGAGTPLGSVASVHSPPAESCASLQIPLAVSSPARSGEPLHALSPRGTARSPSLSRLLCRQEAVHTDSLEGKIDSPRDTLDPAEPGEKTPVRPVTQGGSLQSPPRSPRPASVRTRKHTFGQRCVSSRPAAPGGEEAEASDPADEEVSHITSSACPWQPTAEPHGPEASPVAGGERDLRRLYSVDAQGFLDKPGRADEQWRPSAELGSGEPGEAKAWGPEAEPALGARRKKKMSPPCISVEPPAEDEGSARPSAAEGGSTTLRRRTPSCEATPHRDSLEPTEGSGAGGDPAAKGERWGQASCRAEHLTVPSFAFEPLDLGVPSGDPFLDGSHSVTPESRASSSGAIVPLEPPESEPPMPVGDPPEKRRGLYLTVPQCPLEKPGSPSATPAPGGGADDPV
# Rattus norvegicus [5] = assay: Analgesic activity in Sprague-Dawley rat L5/L6 spinal nerve ligation-induced neuropathic pain model assessed as reversal of mechanical allodynia by measuring increase in paw withdrawal threshold to non-noxious mechanical stimuli at 100 mg/kg, po measured after 3 hrs relative to control; assay type: functional
# Rattus norvegicus [6] = assay: Analgesic activity in Sprague-Dawley rat L5/L6 spinal nerve ligation-induced neuropathic pain model assessed as decrease in paw withdrawal threshold to non-noxious cold stimuli at 100 mg/kg, po measured after 5 hrs; assay type: functional, organism-based
# [7] = target: T2, Voltage-dependent T-type calcium channel subunit alpha-1H; assay: Inhibition of Cav3.2 (unknown origin) assessed as suppression of KCl-evoked current by whole-cell patch clamp method
# [8] = target: T1, Voltage-dependent T-type calcium channel subunit alpha-1G; assay: Inhibition of recombinant human Cav3.1 expressed in HEK293 cells assessed as suppression of KCl-evoked current by whole-cell patch clamp method; assay type: cell-based
# CYP3A4 = CYP3A4 (Homo sapiens, UniProt P08684); assay: Inhibition of CYP3A4 (unknown origin) assessed as residual activity at 10 uM relative to control; assay type: ADME; settings: read-out: Activity
# CYP3A4, sequence (P08684 whole entry): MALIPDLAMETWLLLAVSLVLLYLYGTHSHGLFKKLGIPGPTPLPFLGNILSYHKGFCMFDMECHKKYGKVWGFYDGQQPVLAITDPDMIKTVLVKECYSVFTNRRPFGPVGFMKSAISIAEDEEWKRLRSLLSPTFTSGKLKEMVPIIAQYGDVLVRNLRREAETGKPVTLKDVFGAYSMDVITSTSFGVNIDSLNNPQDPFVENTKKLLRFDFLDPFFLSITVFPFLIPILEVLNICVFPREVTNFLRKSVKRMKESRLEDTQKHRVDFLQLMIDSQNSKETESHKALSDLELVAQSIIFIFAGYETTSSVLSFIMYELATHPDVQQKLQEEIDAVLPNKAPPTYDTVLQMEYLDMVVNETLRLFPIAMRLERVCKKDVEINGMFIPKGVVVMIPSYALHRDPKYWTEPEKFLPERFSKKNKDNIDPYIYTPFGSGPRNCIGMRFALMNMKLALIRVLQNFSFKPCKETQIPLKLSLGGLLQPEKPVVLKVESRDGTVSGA
# CYP2C19 = CYP2C19 (Homo sapiens, UniProt P33261); assay: Inhibition of CYP2C19 (unknown origin) assessed as residual activity at 10 uM relative to control; assay type: ADME; settings: read-out: Activity
# Rattus norvegicus [9] = assay: Analgesic activity in Sprague-Dawley rat L5/L6 spinal nerve ligation-induced neuropathic pain model assessed as decrease in paw withdrawal threshold to non-noxious cold stimuli at 100 mg/kg, po measured after 1 hr; assay type: functional, organism-based
# CYP1A2 = target: T3, CYP1A2 (Homo sapiens, UniProt P05177); assay: Inhibition of CYP1A2 (unknown origin) assessed as residual activity at 10 uM relative to control; assay type: ADME; settings: read-out: Activity
# T3 sequence (P05177 whole entry): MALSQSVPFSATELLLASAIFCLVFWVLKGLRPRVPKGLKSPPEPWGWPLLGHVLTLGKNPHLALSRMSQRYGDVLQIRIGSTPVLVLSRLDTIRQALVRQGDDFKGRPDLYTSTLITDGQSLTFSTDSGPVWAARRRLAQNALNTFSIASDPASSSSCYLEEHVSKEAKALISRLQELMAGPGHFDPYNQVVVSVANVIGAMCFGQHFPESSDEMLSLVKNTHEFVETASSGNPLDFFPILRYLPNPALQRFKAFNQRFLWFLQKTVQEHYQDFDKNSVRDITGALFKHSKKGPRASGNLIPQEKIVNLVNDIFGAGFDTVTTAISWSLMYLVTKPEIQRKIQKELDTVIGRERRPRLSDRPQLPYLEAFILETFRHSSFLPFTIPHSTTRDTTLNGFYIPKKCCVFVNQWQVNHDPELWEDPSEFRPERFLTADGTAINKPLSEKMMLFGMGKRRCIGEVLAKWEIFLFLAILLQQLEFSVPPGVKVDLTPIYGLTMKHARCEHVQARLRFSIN
# CYP2D6 = CYP2D6 (Homo sapiens, UniProt P10635); assay: Inhibition of CYP2D6 (unknown origin) assessed as residual activity at 10 uM relative to control; assay type: ADME; settings: read-out: Activity
# CYP2D6, sequence (P10635 whole entry): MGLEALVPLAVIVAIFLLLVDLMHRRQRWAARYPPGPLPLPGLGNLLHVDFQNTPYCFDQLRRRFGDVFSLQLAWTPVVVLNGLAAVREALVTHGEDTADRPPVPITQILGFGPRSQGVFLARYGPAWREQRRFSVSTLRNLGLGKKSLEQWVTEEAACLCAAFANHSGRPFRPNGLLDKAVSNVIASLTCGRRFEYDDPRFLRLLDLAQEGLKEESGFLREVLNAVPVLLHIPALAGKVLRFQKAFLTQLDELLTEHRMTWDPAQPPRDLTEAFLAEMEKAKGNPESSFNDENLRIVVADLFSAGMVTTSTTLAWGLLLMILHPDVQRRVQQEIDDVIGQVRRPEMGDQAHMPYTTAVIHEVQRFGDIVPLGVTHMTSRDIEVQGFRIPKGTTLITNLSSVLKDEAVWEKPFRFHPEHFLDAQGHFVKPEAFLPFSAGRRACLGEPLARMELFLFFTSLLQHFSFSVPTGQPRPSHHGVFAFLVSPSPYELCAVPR
# CYP2C9 = CYP2C9 (Homo sapiens, UniProt P11712); assay: Inhibition of CYP2C9 (unknown origin) assessed as residual activity at 10 uM relative to control; assay type: ADME; settings: read-out: Activity
# CYP2C9, sequence (P11712 whole entry): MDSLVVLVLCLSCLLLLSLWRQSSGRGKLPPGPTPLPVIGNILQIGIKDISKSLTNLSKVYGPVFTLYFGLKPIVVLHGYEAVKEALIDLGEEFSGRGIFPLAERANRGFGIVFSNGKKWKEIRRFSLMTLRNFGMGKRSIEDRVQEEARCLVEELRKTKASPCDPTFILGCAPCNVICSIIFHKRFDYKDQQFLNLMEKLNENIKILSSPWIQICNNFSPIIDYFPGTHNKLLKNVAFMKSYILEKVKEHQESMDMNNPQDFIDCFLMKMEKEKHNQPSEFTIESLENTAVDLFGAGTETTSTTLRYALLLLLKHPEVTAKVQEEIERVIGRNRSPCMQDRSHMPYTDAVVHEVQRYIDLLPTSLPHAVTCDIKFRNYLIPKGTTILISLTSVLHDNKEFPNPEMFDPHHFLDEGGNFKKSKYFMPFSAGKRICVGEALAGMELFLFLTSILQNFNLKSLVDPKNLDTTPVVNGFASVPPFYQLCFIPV
# Voltage-gated inwardly rectifying potassium channel KCNH2, sequence (Q12809 whole entry): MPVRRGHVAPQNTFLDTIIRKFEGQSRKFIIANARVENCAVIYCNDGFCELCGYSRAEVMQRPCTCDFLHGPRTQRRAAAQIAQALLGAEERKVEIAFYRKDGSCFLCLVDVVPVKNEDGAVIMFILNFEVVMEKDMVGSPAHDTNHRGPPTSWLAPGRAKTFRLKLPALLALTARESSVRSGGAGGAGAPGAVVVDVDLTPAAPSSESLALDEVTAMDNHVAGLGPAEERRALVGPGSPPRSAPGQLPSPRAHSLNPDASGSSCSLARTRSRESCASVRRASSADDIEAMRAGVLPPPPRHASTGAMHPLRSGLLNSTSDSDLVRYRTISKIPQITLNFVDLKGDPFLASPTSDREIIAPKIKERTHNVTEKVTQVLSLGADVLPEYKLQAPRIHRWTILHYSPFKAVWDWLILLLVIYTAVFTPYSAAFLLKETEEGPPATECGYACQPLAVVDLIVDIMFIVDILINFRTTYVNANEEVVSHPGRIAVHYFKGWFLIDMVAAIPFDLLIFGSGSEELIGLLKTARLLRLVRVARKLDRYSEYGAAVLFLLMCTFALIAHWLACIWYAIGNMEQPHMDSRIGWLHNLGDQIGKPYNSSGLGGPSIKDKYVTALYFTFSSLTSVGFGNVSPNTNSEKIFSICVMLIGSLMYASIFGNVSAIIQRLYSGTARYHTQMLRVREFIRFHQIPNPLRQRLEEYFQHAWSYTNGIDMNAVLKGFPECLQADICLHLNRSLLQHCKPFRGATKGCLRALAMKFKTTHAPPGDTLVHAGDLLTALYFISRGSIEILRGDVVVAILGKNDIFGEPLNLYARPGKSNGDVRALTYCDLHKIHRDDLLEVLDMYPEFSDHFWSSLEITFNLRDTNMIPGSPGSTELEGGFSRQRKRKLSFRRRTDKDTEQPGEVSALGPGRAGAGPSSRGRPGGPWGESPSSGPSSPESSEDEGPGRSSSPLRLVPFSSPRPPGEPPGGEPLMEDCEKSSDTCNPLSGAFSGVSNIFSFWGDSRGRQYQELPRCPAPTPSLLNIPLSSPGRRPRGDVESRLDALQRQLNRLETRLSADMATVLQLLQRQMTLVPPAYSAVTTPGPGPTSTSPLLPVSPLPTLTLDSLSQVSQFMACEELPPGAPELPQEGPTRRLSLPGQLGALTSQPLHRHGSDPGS
Structure (SMILES),IC50 [1] [µM],remaining at 0.5 h [2] [%],inhibition [3] [%],inhibition [4] [%],further results
COC(=O)C1=C(C)NC(C)=C(C(=O)NC[C@H]2CCN(CCc3ccc(Cl)c(F)c3)C2)C1c1cccc([N+](=O)[O-])c1 (stereo not given in full),0.33,2.13,80.3,69.7,–
COC(=O)C1=C(C)NC(C)=C(C(=O)NC[C@H]2CCN(CCc3ccc(C(F)(F)F)cc3)C2)C1c1cccc([N+](=O)[O-])c1 (stereo not given in full),1.48,2.01,43.5,34.1,–
COC(=O)C1=C(C)NC(C)=C(C(=O)NC[C@H]2CCN(CCc3ccc(OC(F)(F)F)c(F)c3)C2)C1c1cccc([N+](=O)[O-])c1 (stereo not given in full),1.47,0.25,26.4,33.7,–
CC(C)c1cc(C(=O)NC[C@H]2CCN(CCC(C)(C)C)C2)on1,–,–,23.3,21.1,–
COC(=O)C1=C(C)NC(C)=C(C(=O)NC[C@H]2CCNC2)C1c1cccc([N+](=O)[O-])c1 (stereo not given in full),–,–,5.49,21.8,–
CC(C)c1cc(C(=O)NC[C@H]2CCN(Cc3cccnc3)C2)on1,–,–,2.4,11.6,–
COC(=O)C1=C(C)NC(C)=C(C(=O)NC[C@H]2CCN(CCc3ccc(C)c(C(F)(F)F)c3)C2)C1c1cccc([N+](=O)[O-])c1 (stereo not given in full),2.7,0.63,78.3,65.2,–
CC(C)c1cc(C(=O)NC[C@H]2CCNC2)on1,–,–,11.4,8.36,–
COC(=O)C1=C(C)NC(C)=C(C(=O)NC[C@H]2CCN(CCc3ccc(Cl)c(Cl)c3)C2)C1c1cccc([N+](=O)[O-])c1 (stereo not given in full),–,2.87,32.5,31.3,–
CC(C)c1cc(C(=O)NC[C@H]2CCN(CCc3ccc(C(F)(F)F)cc3)C2)on1,–,34.2,48.7,63.2,–
NCC1(CC(=O)O)CCCCC1,–,–,–,–,Activity (Rattus norvegicus [5]): Active; Activity (Rattus norvegicus [6]): Active
CC(C)c1cc(C(=O)NC[C@H]2CCN(C(=O)CC(C)(C)C)C2)on1,–,–,23.1,17.8,–
Cc1ccc(CCN2CC[C@H](CNC(=O)c3cc(C(C)C)no3)C2)cc1C(F)(F)F,1.9,39.8,46.8,51.9,IC50 [7]: 7.61 µM; IC50 [8]: 5.13 µM; activity at 10 µM (CYP3A4): 33%; activity at 10 µM (CYP2C19): 50.4%; Activity (Rattus norvegicus [9]): Active; activity at 10 µM (CYP1A2): 88.1%; activity at 10 µM (CYP2D6): 31.2%; Activity (Rattus norvegicus [5]): 80%; activity at 10 µM (CYP2C9): 53.9%; Activity (Rattus norvegicus [6]): Active
CC(C)c1cc(C(=O)NC[C@H]2CCN(CCc3ccc(Cl)c(Cl)c3)C2)on1,1.53,51.7,71.7,69.7,–
CC(C)c1cc(C(=O)NC[C@H]2CCN(CCc3ccc(Cl)c(F)c3)C2)on1,1.52,26.2,59.9,50.1,–
CC(C)c1cc(C(=O)NC[C@H]2CCN(CCc3ccc(OC(F)(F)F)c(F)c3)C2)on1,0.16,35.2,36.4,59.7,–
